Test results from PubChem BioAssay (NCI).
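Cells were grown in 96-well plates and exposed to each compound for 48 hours at five concentrations; endpoints were interpolated linearly between bracketing concentrations, or set to the highest concentration if not reached. TGI is the concentration that stops growth completely.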

Key:
Experiment in all cases: growth of human tumour cells (NCI), 48 h
MOLT-4 leukemia = tested on: MOLT-4 leukemia
LOX IMVI melanoma = tested on: LOX IMVI melanoma
HOP-62 NSCLC = tested on: HOP-62 NSCLC
KM20L2 colon = tested on: KM20L2 colon
SF-295 CNS = tested on: SF-295 CNS
SN12C renal = tested on: SN12C renal
UACC-62 melanoma = tested on: UACC-62 melanoma
HCT-116 colon = tested on: HCT-116 colon
SK-MEL-28 melanoma = tested on: SK-MEL-28 melanoma
COLO 205 colon = tested on: COLO 205 colon
TK-10 renal = tested on: TK-10 renal
NCI-H226 lung = tested on: NCI-H226 lung
SK-MEL-2 melanoma = tested on: SK-MEL-2 melanoma
LXFL 529 NSCLC = tested on: LXFL 529 NSCLC
HCC-2998 colon = tested on: HCC-2998 colon
DMS 273 small cell lung = tested on: DMS 273 small cell lung
DMS 114 small cell lung = tested on: DMS 114 small cell lung
OVCAR-4 ovarian = tested on: OVCAR-4 ovarian
SNB-75 CNS = tested on: SNB-75 CNS
M14 melanoma = tested on: M14 melanoma
NCI-H460 lung = tested on: NCI-H460 lung
SF-268 CNS = tested on: SF-268 CNS
SW-620 colon = tested on: SW-620 colon
SNB-78 CNS = tested on: SNB-78 CNS
IGROV1 ovarian = tested on: IGROV1 ovarian
A549 NSCLC = tested on: A549 NSCLC
CCRF-CEM leukemia = tested on: CCRF-CEM leukemia
KM12 colon = tested on: KM12 colon
SNB-19 CNS = tested on: SNB-19 CNS
NCI-H522 lung = tested on: NCI-H522 lung
OVCAR-5 ovarian = tested on: OVCAR-5 ovarian
786-0 renal = tested on: 786-0 renal
A498 renal = tested on: A498 renal
HT29 colon = tested on: HT29 colon
HOP-92 NSCLC = tested on: HOP-92 NSCLC
M19-MEL melanoma = tested on: M19-MEL melanoma
OVCAR-3 ovarian = tested on: OVCAR-3 ovarian
UACC-257 melanoma = tested on: UACC-257 melanoma
RXF 393 renal = tested on: RXF 393 renal
CAKI-1 renal = tested on: CAKI-1 renal
HCT-15 colon = tested on: HCT-15 colon
U251 CNS = tested on: U251 CNS
SK-OV-3 ovarian = tested on: SK-OV-3 ovarian
MALME-3M melanoma = tested on: MALME-3M melanoma
SK-MEL-5 melanoma = tested on: SK-MEL-5 melanoma
UO-31 renal = tested on: UO-31 renal
NCI-H23 lung = tested on: NCI-H23 lung
HL-60(TB) leukemia = tested on: HL-60(TB) leukemia
DLD-1 colon = tested on: DLD-1 colon
OVCAR-8 ovarian = tested on: OVCAR-8 ovarian
ACHN renal = tested on: ACHN renal
EKVX NSCLC = tested on: EKVX NSCLC
K-562 leukemia = tested on: K-562 leukemia
RPMI-8226 leukemia = tested on: RPMI-8226 leukemia
SF-539 CNS = tested on: SF-539 CNS
HOP-18 NSCLC = tested on: HOP-18 NSCLC
DU-145 prostate = tested on: DU-145 prostate
NCI/ADR-RES ovarian = tested on: NCI/ADR-RES ovarian
BT-549 breast = tested on: BT-549 breast
MDA-N = tested on: MDA-N
MDA-MB-231 breast = tested on: MDA-MB-231 breast
SR leukemia = tested on: SR leukemia
MCF7 breast = tested on: MCF7 breast
MDA-MB-435 = tested on: MDA-MB-435
PC-3 prostate = tested on: PC-3 prostate
HS 578T breast = tested on: HS 578T breast
T-47D breast = tested on: T-47D breast

CSc1ccc2c(cc1=O)[C@@H](NC(=O)c1ccc(Cl)cc1)CCc1cc(O)c(O)c(O)c1-2
TGI (MOLT-4 leukemia): > 100 µM
TGI (LOX IMVI melanoma): 33.6 µM
TGI (HOP-62 NSCLC): > 100 µM
TGI (KM20L2 colon): > 100 µM
TGI (SF-295 CNS): > 100 µM
TGI (SN12C renal): 75.8 µM
TGI (UACC-62 melanoma): 68.1 µM
TGI (HCT-116 colon): 32.1 µM
TGI (SK-MEL-28 melanoma): > 100 µM
TGI (COLO 205 colon): > 100 µM
TGI (TK-10 renal): > 100 µM
TGI (NCI-H226 lung): > 100 µM
TGI (SK-MEL-2 melanoma): > 100 µM
TGI (LXFL 529 NSCLC): > 100 µM
TGI (HCC-2998 colon): > 100 µM
TGI (DMS 273 small cell lung): > 100 µM
TGI (DMS 114 small cell lung): > 100 µM
TGI (OVCAR-4 ovarian): 82 µM
TGI (SNB-75 CNS): > 100 µM
TGI (M14 melanoma): > 100 µM
TGI (NCI-H460 lung): > 100 µM
TGI (SF-268 CNS): > 100 µM
TGI (SW-620 colon): 37.1 µM
TGI (SNB-78 CNS): > 100 µM
TGI (IGROV1 ovarian): 50.8 µM
TGI (A549 NSCLC): > 100 µM
TGI (CCRF-CEM leukemia): > 100 µM
TGI (KM12 colon): > 100 µM
TGI (SNB-19 CNS): > 100 µM
TGI (NCI-H522 lung): 52.1 µM
TGI (OVCAR-5 ovarian): > 100 µM
TGI (786-0 renal): > 100 µM
TGI (A498 renal): > 100 µM
TGI (HT29 colon): > 100 µM
TGI (HOP-92 NSCLC): > 100 µM
TGI (M19-MEL melanoma): > 100 µM
TGI (OVCAR-3 ovarian): 56.5 µM
TGI (UACC-257 melanoma): > 100 µM
TGI (RXF 393 renal): > 100 µM
TGI (CAKI-1 renal): > 100 µM
TGI (HCT-15 colon): 51.7 µM
TGI (U251 CNS): > 100 µM
TGI (SK-OV-3 ovarian): > 100 µM
TGI (MALME-3M melanoma): > 100 µM
TGI (SK-MEL-5 melanoma): > 100 µM
TGI (UO-31 renal): > 100 µM
TGI (NCI-H23 lung): > 100 µM
TGI (HL-60(TB) leukemia): > 100 µM
TGI (DLD-1 colon): 72.7 µM
TGI (OVCAR-8 ovarian): > 100 µM
TGI (ACHN renal): > 100 µM
TGI (EKVX NSCLC): > 100 µM
TGI (K-562 leukemia): 68.3 µM
TGI (RPMI-8226 leukemia): 91.5 µM
TGI (SF-539 CNS): > 100 µM
TGI (HOP-18 NSCLC): > 100 µM

COC1(C)C(=O)N2C1N(C(=O)OC(C)(C)C)CC2(C)C (centres undefined)
TGI (MOLT-4 leukemia): > 100 µM
TGI (LOX IMVI melanoma): 53.1 µM
TGI (HOP-62 NSCLC): > 100 µM
TGI (KM20L2 colon): > 100 µM
TGI (SF-295 CNS): > 100 µM
TGI (SN12C renal): > 100 µM
TGI (UACC-62 melanoma): > 100 µM
TGI (HCT-116 colon): > 100 µM
TGI (SK-MEL-28 melanoma): > 100 µM
TGI (COLO 205 colon): > 100 µM
TGI (TK-10 renal): > 100 µM
TGI (NCI-H226 lung): > 100 µM
TGI (SK-MEL-2 melanoma): > 100 µM
TGI (LXFL 529 NSCLC): > 100 µM
TGI (HCC-2998 colon): > 100 µM
TGI (DMS 273 small cell lung): > 100 µM
TGI (DMS 114 small cell lung): > 100 µM
TGI (OVCAR-4 ovarian): > 100 µM
TGI (SNB-75 CNS): > 100 µM
TGI (M14 melanoma): > 100 µM
TGI (NCI-H460 lung): > 100 µM
TGI (SF-268 CNS): > 100 µM
TGI (SW-620 colon): 37.5 µM
TGI (SNB-78 CNS): > 100 µM
TGI (IGROV1 ovarian): > 100 µM
TGI (A549 NSCLC): > 100 µM
TGI (CCRF-CEM leukemia): > 100 µM
TGI (KM12 colon): > 100 µM
TGI (SNB-19 CNS): > 100 µM
TGI (NCI-H522 lung): > 100 µM
TGI (OVCAR-5 ovarian): > 100 µM
TGI (786-0 renal): > 100 µM
TGI (A498 renal): > 100 µM
TGI (HT29 colon): > 100 µM
TGI (HOP-92 NSCLC): > 100 µM
TGI (M19-MEL melanoma): > 100 µM
TGI (OVCAR-3 ovarian): > 100 µM
TGI (UACC-257 melanoma): > 100 µM
TGI (RXF 393 renal): > 100 µM
TGI (CAKI-1 renal): > 100 µM
TGI (HCT-15 colon): > 100 µM
TGI (U251 CNS): > 100 µM
TGI (SK-OV-3 ovarian): > 100 µM
TGI (MALME-3M melanoma): > 100 µM
TGI (SK-MEL-5 melanoma): > 100 µM
TGI (UO-31 renal): > 100 µM
TGI (NCI-H23 lung): > 100 µM
TGI (HL-60(TB) leukemia): > 100 µM
TGI (DLD-1 colon): > 100 µM
TGI (OVCAR-8 ovarian): > 100 µM
TGI (ACHN renal): > 100 µM
TGI (EKVX NSCLC): > 100 µM
TGI (K-562 leukemia): > 100 µM
TGI (RPMI-8226 leukemia): > 100 µM
TGI (SF-539 CNS): > 100 µM
TGI (HOP-18 NSCLC): > 100 µM

C=C1C[C@@H]2O[C@H]3[C@H]4[C@@H](C[C@@H](C)[C@@H](OC(C)=O)[C@H]42)[C@@H](C)CO[C@@]3(C)[C@H](OC(=O)CCCCCCC)C[C@H]1O
TGI (DU-145 prostate): 28.3 µM
TGI (MOLT-4 leukemia): 52.7 µM
TGI (LOX IMVI melanoma): 26.6 µM
TGI (NCI/ADR-RES ovarian): 30.7 µM
TGI (HOP-62 NSCLC): 32.9 µM
TGI (SF-295 CNS): 36.4 µM
TGI (SN12C renal): 31.1 µM
TGI (UACC-62 melanoma): 31.4 µM
TGI (HCT-116 colon): 30.1 µM
TGI (SK-MEL-28 melanoma): 32.7 µM
TGI (COLO 205 colon): 29.9 µM
TGI (TK-10 renal): 32.8 µM
TGI (NCI-H226 lung): 26.1 µM
TGI (SK-MEL-2 melanoma): 36.7 µM
TGI (BT-549 breast): 32.9 µM
TGI (HCC-2998 colon): 30.9 µM
TGI (MDA-N): 30.3 µM
TGI (OVCAR-4 ovarian): 28.1 µM
TGI (SNB-75 CNS): 32.6 µM
TGI (MDA-MB-231 breast): 27 µM
TGI (M14 melanoma): 35.2 µM
TGI (NCI-H460 lung): 30.1 µM
TGI (SF-268 CNS): 31.1 µM
TGI (SR leukemia): 36.3 µM
TGI (SW-620 colon): 40.3 µM
TGI (MCF7 breast): 40.4 µM
TGI (IGROV1 ovarian): 36 µM
TGI (A549 NSCLC): 34 µM
TGI (CCRF-CEM leukemia): 38 µM
TGI (MDA-MB-435): 34.8 µM
TGI (KM12 colon): 31.5 µM
TGI (SNB-19 CNS): 32.4 µM
TGI (NCI-H522 lung): 34.4 µM
TGI (OVCAR-5 ovarian): 32 µM
TGI (786-0 renal): 28.9 µM
TGI (A498 renal): 30.8 µM
TGI (HT29 colon): 46.2 µM
TGI (HOP-92 NSCLC): 30.4 µM
TGI (OVCAR-3 ovarian): 37.2 µM
TGI (UACC-257 melanoma): 32.6 µM
TGI (RXF 393 renal): 36.1 µM
TGI (PC-3 prostate): 28.7 µM
TGI (CAKI-1 renal): 28 µM
TGI (HCT-15 colon): 30.4 µM
TGI (U251 CNS): 30.6 µM
TGI (HS 578T breast): 36.4 µM
TGI (SK-MEL-5 melanoma): 28.8 µM
TGI (UO-31 renal): 29.7 µM
TGI (NCI-H23 lung): 40.2 µM
TGI (HL-60(TB) leukemia): 44.1 µM
TGI (OVCAR-8 ovarian): 31.4 µM
TGI (ACHN renal): 35 µM
TGI (EKVX NSCLC): 31 µM
TGI (K-562 leukemia): > 100 µM
TGI (RPMI-8226 leukemia): 42.6 µM
TGI (T-47D breast): 24.6 µM
TGI (SF-539 CNS): 40.5 µM
